Measured values published in patent US8816119B2, “Arylamide derivatives having antiandrogenic properties” (Medeia Therapeutics Ltd, priority 2010, dated 2014).
Substitutions are numbered along the chain they refer to.

Columns and labels:
Format in all cases: cell-based
W741L AR = biological target: T1, W741L AR (Homo sapiens, UniProt P10275, W742L); test: Agonism in W741L mutant AR, AR transactivation assay in COS-1 cells, test compounds alone; settings: 10 microM, compound alone
T1 construct: expressed in transfected cells; host or cells: COS-1
T1 sequence (P10275 1-920 W742L): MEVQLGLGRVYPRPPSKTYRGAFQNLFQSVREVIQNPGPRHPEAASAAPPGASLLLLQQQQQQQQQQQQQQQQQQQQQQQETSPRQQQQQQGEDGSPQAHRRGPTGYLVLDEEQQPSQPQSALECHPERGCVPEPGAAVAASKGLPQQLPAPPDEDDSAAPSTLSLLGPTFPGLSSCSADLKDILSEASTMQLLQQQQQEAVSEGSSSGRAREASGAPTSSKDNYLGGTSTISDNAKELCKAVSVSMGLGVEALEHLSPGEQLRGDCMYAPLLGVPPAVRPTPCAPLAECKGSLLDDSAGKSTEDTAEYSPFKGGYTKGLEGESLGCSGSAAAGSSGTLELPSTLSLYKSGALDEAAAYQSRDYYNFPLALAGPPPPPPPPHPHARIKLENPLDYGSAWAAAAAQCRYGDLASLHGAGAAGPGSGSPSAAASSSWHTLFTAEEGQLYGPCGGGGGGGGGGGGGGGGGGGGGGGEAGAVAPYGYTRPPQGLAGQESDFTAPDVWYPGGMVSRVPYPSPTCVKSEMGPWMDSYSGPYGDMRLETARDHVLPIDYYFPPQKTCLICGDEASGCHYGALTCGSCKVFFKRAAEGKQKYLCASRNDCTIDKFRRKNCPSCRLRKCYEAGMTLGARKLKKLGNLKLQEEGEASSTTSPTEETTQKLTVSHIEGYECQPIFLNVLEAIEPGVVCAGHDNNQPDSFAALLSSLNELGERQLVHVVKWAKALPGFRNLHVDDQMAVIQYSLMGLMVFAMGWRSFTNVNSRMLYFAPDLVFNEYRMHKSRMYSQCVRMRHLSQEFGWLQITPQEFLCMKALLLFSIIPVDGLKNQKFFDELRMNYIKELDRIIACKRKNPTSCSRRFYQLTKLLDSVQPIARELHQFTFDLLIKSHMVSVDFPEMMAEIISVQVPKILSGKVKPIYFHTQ
Procedure: COS-1 (American Type Culture Collection) were cultured in DMEM supplemented with 10% FBS, penicillin (6.25 U/ml) and streptomycin (6.25 μg/ml) and seeded onto 48-well plates (50 000 cells/well) one day before transfection. Transfection media containing 2.5% charcoal-stripped FBS in DMEM was changed on cells 4 h prior to transfection. Cells were transfected with 50 ng of reporter gene plasmid (pPB-286/+32-LUC; PB, probasin promoter), 5 ng of AR expression plasmid (pSG5-hAR), and 5 ng of pCMVβ (an internal, beta-galactosidase control for transfection efficiency and cell growth) using TranslT-LT1 reagent (Mirus Bio Corporation) according to the manufacturer's instructions. […] After 18 h, reporter gene activities (LUC and beta-galactosidase) were determined according to standard methods. The data are expressed as relative LUC activity (luciferase light units divided by beta-galactosidase A420nm to control for transfection efficiency) of a given compound in relation to the activity of a reference test item (=100%).
Agonism in W741L AR of compounds of the present invention was measured in AR transactivation assay in COS-1 cells as described above except that AR expression vector harboring the W741L mutation was used instead of the WT AR. The transfected cells were exposed to test compounds alone.

T877A AR = biological target: T2, T877A AR (Homo sapiens, UniProt P10275, T878A); test: Agonism in T877A mutant AR, AR transactivation assay in COS-1 cells, test compounds alone; settings: 10 microM, compound alone
T2 construct: expressed in transfected cells; host or cells: COS-1
T2 sequence (P10275 1-920 T878A): T1 sequence (P10275 1-920 W742L) with L742W, T878A
Text: The transfected cells were exposed to test compounds alone. Testosterone was used as reference agonist, and its' relative LUC activity representing AR-dependent transcription was set to 100%.

WT AR = biological target: T3, WT AR (Homo sapiens, UniProt P10275); test: Antagonism in WT AR, AR transactivation reporter gene assay in COS-1 cells, competitive setting with 50 nM testosterone; settings: 18 h
T3 construct: expressed in transfected cells; host or cells: COS-1
T3 sequence (P10275 1-920): T1 sequence (P10275 1-920 W742L) with L742W
Procedure: After 18 h, reporter gene activities (LUC and beta-galactosidase) were determined according to standard methods. The data are expressed as relative LUC activity (luciferase light units divided by beta-galactosidase A420nm to control for transfection efficiency) of a given compound in relation to the activity of a reference test item (=100%).
Antagonism in WT AR of compounds of the present invention was measured in AR transctivation assay in COS-1 cells in competitive setting using testosterone as a reference agonist as described above. […] Relative LUC activity representing AR-dependent transcription obtained by exposure to testosterone alone was set to 100%.

SMILES	Relative LUC activity (%) in W741L AR in relation to BIC (100%) (W741L AR)	Relative LUC activity (%) in T877A AR in relation to testosterone (100%) (T877A AR)	Relative LUC activity (%) indicating residual androgen activity in relation to testosterone (100%) (WT AR; 1 microM compound)	Relative LUC activity (%) indicating residual androgen activity in relation to testosterone (100%) (WT AR; 10 microM compound)
CCS(=O)(=O)CC(O)(C(=O)Nc1ccc(C#N)c(C(F)(F)F)c1)c1ccc(F)cc1 (stereo not drawn) [Example 1, N-[4-cyano-3-(trifluoro-methyl)phenyl]-3-(ethanesulfonyl)-2-(4-fluorophenyl)-2-hydroxypropanamide]	12%	14%		
CC(C)CCS(=O)(=O)CC(O)(C(=O)Nc1ccc(C#N)c(C(F)(F)F)c1)c1ccc(F)cc1 (stereo not drawn) [Example 2, N-[4-cyano-3-(trifluoromethyl)phenyl]-2-(4-fluorophenyl)-2-hydroxy-3-[(3-methylbutane)-sulfonyl]propanamide]			12%	3%
N#Cc1ccc(NC(=O)C(O)(CS(=O)(=O)Cc2ccco2)c2ccc(C(F)(F)F)cc2)cc1C(F)(F)F (stereo not drawn) [Example 3, N-[4-cyano-3-(trifluoro-methyl)phenyl]-3-[(furan-2-ylmethane)sulfonyl]-2-hydroxy-2-[4-(trifluoromethyl)phenyl]propanamide]	4%	3%	17%	3%
N#Cc1ccc(NC(=O)C(O)(CS(=O)(=O)c2ccc(F)cc2)c2ccc(C(F)(F)F)cc2)cc1Cl (stereo not drawn) [Example 4, N-(3-chloro-4-cyanophenyl)-3-[(4-fluorobenzene)sulfonyl]-2-hydroxy-2-[4-(trifluoromethyl)phenyl]propanamide]	8%	1%	21%	1%
CCS(=O)(=O)CC(O)(C(=O)Nc1ccc(C#N)c(Cl)c1)c1ccc(F)c(F)c1 (stereo not drawn) [Example 5, N-(3-chloro-4-cyanophenyl)-2-(3,4-difluorophenyl)-3-(ethanesulfonyl)-2-hydroxypropanamide]	18%	9%		
N#Cc1ccc(NC(=O)C(O)(CS(=O)(=O)c2ccc(F)c(F)c2)c2ccc(F)cc2)cc1Cl (stereo not drawn) [Example 6, N-(3-chloro-4-cyanophenyl)-3-[(3,4-difluorobenzene)sulfonyl]-2-(4-fluorophenyl)-2-hydroxypropanamide]			7%	5%
CCS(=O)(=O)CC(O)(C(=O)Nc1ccc(C#N)c(C(F)(F)F)c1)c1ccc(C(F)(F)F)cc1 (stereo not drawn) [Example 17, N-[4-cyano-3-(trifluoromethyl)phenyl]-3-(ethanesulfonyl)-2-[4-(trifuoromethyl)phenyl]-2-hydroxypropanamide]			18%	3%
COc1ccc(C(O)(CS(=O)(=O)c2ccc(F)c(F)c2)C(=O)Nc2ccc(C#N)c(C(F)(F)F)c2)cc1F (stereo not drawn) [Example 22, N-(4-cyano-3-(trifluoromethyl)phenyl)-3-[(3,4-difluorobenzene)sulfonyl]-2-hydroxy-2-[3-fluoro-4-(methoxy)phenyl]propanamide]			9%	3%
COc1ccc(C(O)(CS(=O)(=O)c2cccc(F)c2)C(=O)Nc2ccc(C#N)c(Cl)c2)cc1F (stereo not drawn) [Example 33, N-(3-chloro-4-cyanophenyl)-2-(3-fluoro-4-methoxyphenyl)-3-[(3-fluorobenzene)sulfonyl]-2-hydroxypropanamide]			5%	1%
N#Cc1ccc(NC(=O)C(O)(CS(=O)(=O)c2cccc(F)c2)c2ccc(F)c(F)c2)cc1C(F)(F)F (stereo not drawn) [Example 39, N-[4-cyano-3-(trifluoromethyl)phenyl]-2-(3,4-difluorophenyl)-3-[(3-fluorobenzene)sulfonyl]-2-hydroxypropanamide]			14%	2%
